Earlier results, collected in patent US20090092657A1, “Amino acid combinant omega oil aphrodisiac” (priority 2007, published 2009).

Legend:
[1] = for erection after injection: injected directly into the corpus cavernosum using a hypodermic needle; for duration of erection: intracavernosal injection, appropriate dose
[2] = buccal administration of 100 I.U. three times a day for 14 days
[3] = 1989 outbreak traced to L-tryptophan supplied by Showa Denko KK

For `CN(C)CCCN1c2ccccc2CCc2ccccc21` [imipramine], the erection after injection [1] is listed as “caused erection”.

In the case of `CC(COc1ccccc1)N(CCCl)Cc1ccccc1` (centres unmarked) [phenoxybenzamine], the erection after injection [1] is listed as “caused erection” and the duration of erection [1] is listed as “unrelenting erection lasting for hours”.

In the case of `COc1ccc(Cc2nccc3cc(OC)c(OC)cc23)cc1OC` [papaverine], the erection after injection [1] is listed as “caused erection” and the duration of erection [1] is listed as “unrelenting erection lasting for hours”.

In the case of `Cc1ccc(N(CC2=NCCN2)c2cccc(O)c2)cc1` [phentolamine], the erection after injection [1] is listed as “caused erection”.

In the case of `CC[C@H](C)[C@@H]1NC(=O)[C@H](Cc2ccc(O)cc2)NC(=O)[C@@H](N)CSSC[C@@H](C(=O)N2CCC[C@H]2C(=O)N[C@@H](CC(C)C)C(=O)NCC(N)=O)NC(=O)[C@H](CC(N)=O)NC(=O)[C@H](CCC(N)=O)NC1=O` [oxytocin], the “improvement of impotentia erectionis, patients improved of patients treated” value [2] is listed as 12 of the 16.

In the case of `CC(=O)Oc1cc(C(C)C)c(OCCN(C)C)cc1C` [thymoxamine], the erection after injection [1] is given as “caused erection”.

For `CCN(CC)CCOC(=O)C(Cc1cccc2ccccc12)CC1CCCO1` (mixture of isomers) [naftidrofuryl], the erection after injection [1] is listed as “caused erection”.

In the case of `N[C@@H](Cc1c[nH]c2ccccc12)C(=O)O` [L-tryptophan], the “cases of eosinophilia-myalgia syndrome (EMS) in the outbreak” value [3] is given as 1500 cases and the “deaths in the EMS outbreak” value [3] is given as “at least 37 deaths”.
